Measurements: patent publication US11760773B2, “Small molecule drug conjugates of gemcitabine monophosphate” (MaveriX Oncology, Inc., priority 2018, dated 2023)

Key:
[1] = system: UT-SCC-10; test: Tumor cell proliferation (alamarBlue) cytotoxicity assay, UT-SCC-10; assay type: cell-based, human; conditions: Homo sapiens; UT-SCC-10, 72 hours treatment
Experimental: A tumor cell proliferation assay was used to determine cytotoxicity IC50 values for the phosphate prodrug Compounds 1-9, the parent non-phosphorylated SMDC parent compounds, and the effector (gemcitabine) across eight primary early-passage human head and neck squamous cell carcinoma cell lines including UT-SCC-5, UT-SCC-8, UT-SCC-9, UT-SCC-10, UT-SCC-14, UT-SCC-16A, UT-SCC-16B, and UT-SCC-24A.
UTSCC cells were seeded at 4000 cells/100 I/well on 96-well black clear-bottom tissue culture plate. Cells were incubated at 37° C. and 5% CO2 overnight to allow them to recover and re-attach. The next day cells were treated with the test compound (0-100 μM) for 72 hours. After treatment, cell proliferation was measured by Fluorescent quantitation of alamarBlue reagent. The alamarBlue assay incorporates a fluorometric/colorimetric growth indicator based on detection of metabolic activity. Specifically, resazurin, the active ingredient of alamarBlue reagent, is blue in color and virtually non-fluorescent. Upon entering cells, resazurin is reduced to resorufin, a compound that is red in color and highly fluorescent.
Continued cell growth maintains a reduced environment, therefore increasing the overall fluorescence and color of the media surrounding cells. The fluorescence intensity of alamarBlue reagent was directly proportional to cell number. To perform the alamarBlue assay, 10 I of alamarBlue reagent was added to each well and the plate was incubated at 37° C. for an additional 2 hour. Fluorescence intensity was measured at an excitation of 530 nm and an emission of 590 nm using a BioTek Synergy™ 2 microplate reader.
Cell proliferation assays in triplicate were performed at each concentration. The fluorescent intensity data were analyzed using the computer software, Graphpad Prism. In the absence of the compound, the fluorescent intensity (Ft) in each data set was defined as 100%. In the absence of cells, the fluorescent intensity (Fb) in each data set was defined as 0%. The percent cell in the presence of each compound was calculated according to the following equation: % cell=(F−Fb)/(Ft−Fb), where F=the fluorescent intensity in the presence of the compound, Fb=the fluorescent intensity in the absence of cells, and Ft=the fluorescent intensity in the absence of the compound. The values of % cell versus a series of compound concentrations were then plotted using non-linear regression analysis of Sigmoidal dose-response curve generated with the equation Y=B+(T−B)/1+10^((Log EC50-X)×Hill Slope) where Y=percent cell, B=minimum percent cell, T=maximum percent cell, X=logarithm of compound and Hill Slope=slope factor or Hill coefficient. The IC50 value was determined by the concentration causing a half-maximal percent activity.

[2] = Liver microsomal stability, human; assay type: in vitro ADME; conditions: for half-life / Compound Remaining (% of 0 min) 0 min / Compound Remaining (% of 0 min) 5 min / Compound Remaining (% of 0 min) 15 min / Compound Remaining (% of 0 min) 30 min / Compound Remaining (% of 0 min) 45 min / Compound Remaining (% of 0 min) control: human liver microsomes; for microsomal CLint: human, liver microsomes
[3] = Metabolic stability in liver hepatocytes, monkey; assay type: in vitro ADME
[4] = Solubility / formulation; assay type: physicochemical
[5] = Human plasma stability; assay type: in vitro ADME
Experimental: (§1) Method: Assay was carried out in 96-well microtiter plates. Compounds were incubated in replicates (n=2) for 0, 5, 15, 30, and 45 minutes at 37° C. Reaction mixtures (20 μL) contained a final concentration of 3 μM test compound in human plasma. Eucatropine included as positive control to verify assay performance. Linear regression of semi-log plot of % remaining of compounds versus time used to determine the half-life t½ values.

[6] = CD-1 mouse plasma stability; assay type: in vitro ADME
Experimental: as §1, with “fresh CD-1 mouse” for “human”, “t1/2” for “t½”

[7] = Rat plasma stability; assay type: in vitro ADME
Experimental: as §1, with “fresh Sprague Dawley rat” for “human”, “is a” for “included as”, “t1/2” for “t½”

[8] = Mouse liver S9 stability; assay type: in vitro ADME; conditions: for microsomal CLint: mouse
[9] = Monkey liver S9 stability; assay type: in vitro ADME; conditions: for microsomal CLint: monkey
[10] = Dog liver S9 stability; assay type: in vitro ADME; conditions: for microsomal CLint: dog
[11] = Rat liver S9 stability; assay type: in vitro ADME; conditions: for microsomal CLint: rat
[12] = Liver microsomal stability, rat; assay type: in vitro ADME; conditions: rat liver microsomes
[13] = Metabolic stability in liver hepatocytes, across species; assay type: in vitro ADME; conditions: mouse, dog, monkey, rat highest, human lowest, read-out: intrinsic clearance values Cint

Compound: Nc1ccn([C@@H]2O[C@H](CO)[C@@H](O)C2(F)F)c(=O)n1 [Gemcitabine, gemcitabine]
- IC50 [1]: 9 nM
- half-life [2]: 0.335 h
- Compound Remaining (% of 0 min) 0 min [2]: 100 % of 0 min
- Compound Remaining (% of 0 min) 5 min [2]: 113 % of 0 min
- Compound Remaining (% of 0 min) 15 min [2]: 69.1 % of 0 min
- Compound Remaining (% of 0 min) 30 min [2]: 48.6 % of 0 min
- Compound Remaining (% of 0 min) 45 min [2]: 22.4 % of 0 min
- Compound Remaining (% of 0 min) control [2]: 98.1 % of 0 min
- microsomal CLint [2]: 68.8 µL/min/mg
- Slope Mean ± SE [3]: 0.001817 ± 0.001897

Compound: COc1cc(OC)c2oc(COC(=O)Nc3ccn([C@@H]4O[C@H](CO)[C@@H](O)C4(F)F)c(=O)n3)cc2c1 [Int 1-4, (5,7-di(methoxy)benzofuran-2-yl)methyl (1-((2R,4R,5R)-3,3-difluoro-4-hydroxy-5-(hydroxymethyl)tetrahydrofuran-2-yl)-2-oxo-1,2-dihydropyrimidin-4-yl)carbamate]
- IC50 [1]: 9 nM
- solubility [4]: low to moderate solubility
- formulated to ([4]; formulation): 50 mg/mL
- Slope Mean ± SE ([5]; 3 μM, 37° C., semi-log plot of % remaining versus time, in min-1 (unit assumed)): 0.001033 ± 0.001249
- stability in human plasma ([5]; repeat measurements): stable
- Slope Mean ± SE ([6]; 3 μM, 37° C., in min-1 (unit assumed)): −0.000906 ± 0.000706
- half-life at 3 μM ([6]; fresh CD-1 mouse plasma, 3 μM, 37° C., read-out: t1/2 Mean ± SE): 12.8 ± 9.94 h
- half-life at 3 μM ([6]; read-out: t1/2 (converted)): ~13 h
- Slope Mean ± SE ([7]; Sprague Dawley rat plasma, 3 μM, 37° C.): −0.009305 ± 0.001423
- half-life at 3 μM ([7]; Sprague Dawley rat plasma, read-out: t1/2 (converted)): ~1.2 h
- half-life at 3 μM ([7]; fresh Sprague Dawley rat plasma, 3 μM, 37° C., read-out: t1/2 Mean ± SE): 1.24 ± 0.19 h
- Slope Mean ± SE ([8]; mouse liver S9): −0.00317 ± 0.000413
- half-life ([8]; mouse liver S9, read-out: t1/2 Mean ± SE): 3.64 ± 0.475 h
- microsomal CLint ([8]; liver S9, mouse liver S9, summary, read-out: S9 intrinsic clearance Clint): < 2.5 µL/min/mg
- microsomal CLint ([8]; liver S9, mouse liver S9, text value, read-out: intrinsic clearance value): 1.27 µL/min/mg
- microsomal CLint ([8]; liver S9, mouse liver S9, read-out: CLint Mean ± SE): 1.27 ± 0.165 µL/min/mg
- Slope Mean ± SE ([9]; monkey liver S9): −0.03881 ± 0.002089
- half-life ([9]; monkey liver S9, read-out: t1/2 Mean ± SE): 0.298 ± 0.0167 h
- microsomal CLint ([9]; liver S9, monkey liver S9, summary, read-out: S9 intrinsic clearance Clint): < 2.5 µL/min/mg
- microsomal CLint ([9]; liver S9, monkey liver S9, read-out: CLint Mean ± SE): 15.5 ± 0.836 µL/min/mg
- microsomal CLint ([9]; liver S9, monkey liver S9 experiment, read-out: intrinsic clearance value): 15.5 µL/min/mg
- Slope Mean ± SE ([10]; dog liver S9): −0.005558 ± 0.000749
- half-life ([10]; dog liver S9, read-out: t1/2 Mean ± SE): 2.08 ± 0.28 h
- intrinsic clearance value ([10]; dog liver S9 experiment): < 2.5 μL/min/mg protein
- microsomal CLint ([10]; liver S9, dog liver S9, read-out: CLint Mean ± SE): 2.22 ± 0.299 µL/min/mg
- microsomal CLint ([10]; liver S9, dog liver S9 experiment, read-out: intrinsic clearance value): 2.2 µL/min/mg
- Slope Mean ± SE ([11]; rat liver S9): −0.03579 ± 0.001471
- intrinsic clearance value ([11]; rat liver S9, text value): ~14 μL/min/mg protein
- half-life ([11]; rat liver S9, read-out: t1/2 Mean ± SE): 0.323 ± 0.0133 h
- microsomal CLint ([11]; liver S9, rat liver S9, text value, read-out: intrinsic clearance value): 14.3 µL/min/mg
- microsomal CLint ([11]; liver S9, rat liver S9, read-out: CLint Mean ± SE): 14.3 ± 0.588 µL/min/mg
- half-life [2]: 30.8 h
- Compound Remaining (% of 0 min) 0 min [2]: 100 % of 0 min
- Compound Remaining (% of 0 min) 5 min [2]: 111 % of 0 min
- Compound Remaining (% of 0 min) 15 min [2]: 94.0 % of 0 min
- Compound Remaining (% of 0 min) 30 min [2]: 107 % of 0 min
- Compound Remaining (% of 0 min) 45 min [2]: 99.9 % of 0 min
- Compound Remaining (% of 0 min) control [2]: 102 % of 0 min
- microsomal CLint [2]: 0.747 µL/min/mg
- microsomal CLint ([2]; text value): 0.75 µL/min/mg
- CLint [12]: 297 μL/min/mg protein
- half-life [12]: 4.66 min
- microsomal CLint [12]: 297 µL/min/mg
- Compound Remaining (% of 0 min) 0 min ([12]; 0 min): 100 % of 0 min
- Compound Remaining (% of 0 min) 5 min ([12]; 5 min): 64.7 % of 0 min
- Compound Remaining (% of 0 min) 15 min ([12]; 15 min): 20.0 % of 0 min
- Compound Remaining (% of 0 min) 30 min ([12]; 30 min): 1.81 % of 0 min
- Compound Remaining (% of 0 min) 45 min ([12]; 45 min): 0.13 % of 0 min
- Compound Remaining (% of 0 min) control ([12]; control): 95.6 % of 0 min
- Slope Mean ± SE [3]: −0.005018 ± 0.001425
- half-life ([3]; negative value indicates compound is stable, read-out: t1/2 mean ± SE): 2.3 ± 0.653 h
- microsomal CLint [13]: 3 to 8 µL/min/mg
